# Measured values published in ChEMBL document CHEMBL1152321, “Recent advances in the chemistry and biology of new generation taxoids” (J Nat Prod, 2009).
# How the values were obtained:
# [1] = Cytotoxicity against P-glycoprotein deficient wild type human LCC-6 cells after 72 hrs; format: functional, cell-based; conditions: LCC-6, 72 h
# MCF7 [2] = assay: Cytotoxicity against P-glycoprotein deficient wild type human MCF7 cells after 72 hrs; format: functional, cell-based; conditions: MCF7, 72 h
# MCF7 [3] = assay: Cytotoxicity against human MCF7 cells expressing P-glycoprotein after 72 hrs; format: functional, cell-based; conditions: MCF7, 72 h
# MCF7 [4] = assay: Resistance factor, ratio of IC50 for human MCF7 cells expressing P-glycoprotein to IC50 for P-glycoprotein deficient wild type human MCF7 cells; format: functional
# [5] = Resistance factor, ratio of IC50 for human LCC-6 cells expressing P-glycoprotein to IC50 for P-glycoprotein deficient wild type human LCC-6 cells; format: functional; set-up: reference not given here
# HT-29 = assay: Cytotoxicity against human HT-29 cells after 72 hrs; format: functional, cell-based; conditions: HT-29, 72 h
Structure (SMILES),IC50 [1] [nM],Ratio [5],further results
CCC(=O)O[C@H]1C(=O)[C@@]2(C)[C@H]([C@H](OC(=O)c3cccc(N=[N+]=[N-])c3)[C@]3(O)C[C@H](OC(=O)[C@H](O)[C@H](C=C(C)C)NC(=O)OC(C)(C)C)C(C)=C1C3(C)C)[C@]1(OC(C)=O)CO[C@@H]1C[C@@H]2O,0.9,–,–
CCC(=O)O[C@H]1C(=O)[C@@]2(C)[C@H]([C@H](OC(=O)c3cccc(OC)c3)[C@]3(O)C[C@H](OC(=O)[C@H](O)[C@H](C=C(F)F)NC(=O)OC(C)(C)C)C(C)=C1C3(C)C)[C@]1(OC(C)=O)CO[C@@H]1C[C@@H]2O,–,–,IC50 (MCF7 [2]): 0.34 nM; IC50 (MCF7 [3]): 0.57 nM; Ratio (MCF7 [4]): 1.7
CC(=O)O[C@H]1C(=O)[C@@]2(C)[C@H]([C@H](OC(=O)c3cccc(C)c3)[C@]3(O)C[C@H](OC(=O)[C@H](O)[C@H](C=C(C)C)NC(=O)OC(C)(C)C)C(C)=C1C3(C)C)[C@]1(OC(C)=O)CO[C@@H]1C[C@@H]2O,1.5,–,–
COc1cccc(CCC(=O)O[C@H]2C(=O)[C@@]3(C)[C@H]([C@H](OC(=O)c4ccccc4)[C@]4(O)C[C@H](OC(=O)[C@H](O)[C@H](C=C(C)C)NC(=O)OC(C)(C)C)C(C)=C2C4(C)C)[C@]2(OC(C)=O)CO[C@@H]2C[C@@H]3O)c1,3.7,1.8,–
CC(=O)O[C@H]1C(=O)[C@@]2(C)[C@H]([C@H](OC(=O)c3cccc(N=[N+]=[N-])c3)[C@]3(O)C[C@H](OC(=O)[C@H](O)[C@H](C=C(F)F)NC(=O)OC(C)(C)C)C(C)=C1C3(C)C)[C@]1(OC(C)=O)CO[C@@H]1C[C@@H]2O,–,–,IC50 (MCF7 [2]): 0.092 nM; IC50 (MCF7 [3]): 0.34 nM; Ratio (MCF7 [4]): 3.7
CCC(=O)O[C@H]1C(=O)[C@@]2(C)[C@H]([C@H](OC(=O)c3cccc(Cl)c3)[C@]3(O)C[C@H](OC(=O)[C@H](O)[C@H](C=C(C)C)NC(=O)OC(C)(C)C)C(C)=C1C3(C)C)[C@]1(OC(C)=O)CO[C@@H]1C[C@@H]2O,0.8,–,–
CCC(=O)O[C@H]1C(=O)[C@@]2(C)[C@H]([C@H](OC(=O)c3cccc(F)c3)[C@]3(O)C[C@H](OC(=O)[C@H](O)[C@H](CC(C)C)NC(=O)OC(C)(C)C)C(C)=C1C3(C)C)[C@]1(OC(C)=O)CO[C@@H]1C[C@@H]2O,0.4,6,–
COC(=O)O[C@H]1C(=O)[C@@]2(C)[C@H]([C@H](OC(=O)c3cccc(OC)c3)[C@]3(O)C[C@H](OC(=O)[C@H](O)[C@H](C=C(F)F)NC(=O)OC(C)(C)C)C(C)=C1C3(C)C)[C@]1(OC(C)=O)CO[C@@H]1C[C@@H]2O,–,–,IC50 (MCF7 [2]): 0.078 nM; IC50 (MCF7 [3]): 0.5 nM; Ratio (MCF7 [4]): 6.4
CCC(=O)O[C@H]1C(=O)[C@@]2(C)[C@H]([C@H](OC(=O)c3cccc(N=[N+]=[N-])c3)[C@]3(O)C[C@H](OC(=O)[C@H](O)[C@H](CC(C)C)NC(=O)OC(C)(C)C)C(C)=C1C3(C)C)[C@]1(OC(C)=O)CO[C@@H]1C[C@@H]2O,1.1,–,–
COc1ccc(CCC(=O)O[C@H]2C(=O)[C@@]3(C)[C@H]([C@H](OC(=O)c4ccccc4)[C@]4(O)C[C@H](OC(=O)[C@H](O)[C@H](C=C(C)C)NC(=O)OC(C)(C)C)C(C)=C2C4(C)C)[C@]2(OC(C)=O)CO[C@@H]2C[C@@H]3O)cc1,1.7,2.9,–
C=Cc1cccc(C(=O)O[C@H]2[C@@H]3[C@]4(OC(C)=O)CO[C@@H]4C[C@H](O)[C@@]3(C)C(=O)[C@H](OC(=O)CC)C3=C(C)[C@@H](OC(=O)[C@H](O)[C@H](C=C(C)C)NC(=O)OC(C)(C)C)C[C@]2(O)C3(C)C)c1,2.9,–,–
CC(=O)O[C@@]12CO[C@@H]1C[C@H](O)[C@@]1(C)C(=O)[C@H](OC(=O)OCc3ccccc3)C3=C(C)[C@@H](OC(=O)[C@H](O)[C@H](C=C(C)C)NC(=O)OC(C)(C)C)C[C@@](O)([C@@H](OC(=O)c4ccccc4)[C@H]21)C3(C)C,1.8,9.3,–
C/C=C/[C@H](NC(=O)OC(C)(C)C)[C@@H](O)C(=O)O[C@H]1C[C@@]2(O)[C@@H](OC(=O)c3cccc(OC)c3)[C@@H]3[C@]4(OC(C)=O)CO[C@@H]4C[C@H](O)[C@@]3(C)C(=O)[C@H](OC(=O)CC)C(=C1C)C2(C)C,1.2,–,–
COc1cccc(C(=O)O[C@H]2C(=O)[C@@]3(C)[C@H]([C@H](OC(=O)c4ccccc4)[C@]4(O)C[C@H](OC(=O)[C@H](O)[C@H](C=C(C)C)NC(=O)OC(C)(C)C)C(C)=C2C4(C)C)[C@]2(OC(C)=O)CO[C@@H]2C[C@@H]3O)c1,2.8,1.8,–
CC(=O)O[C@@]12CO[C@@H]1C[C@H](O)[C@@]1(C)C(=O)[C@H](OC(=O)C3CC3)C3=C(C)[C@@H](OC(=O)[C@H](O)[C@H](C=C(F)F)NC(=O)OC(C)(C)C)C[C@@](O)([C@@H](OC(=O)c4cccc(N=[N+]=[N-])c4)[C@H]21)C3(C)C,–,–,IC50 (MCF7 [2]): 0.092 nM; IC50 (MCF7 [3]): 0.45 nM; Ratio (MCF7 [4]): 4.9
CCC(=O)O[C@H]1C(=O)[C@@]2(C)[C@H]([C@H](OC(=O)c3cccc(OC)c3)[C@]3(O)C[C@H](OC(=O)[C@H](O)[C@@H](NC(=O)OC(C)(C)C)[C@H]4CC4(C)C)C(C)=C1C3(C)C)[C@]1(OC(C)=O)CO[C@@H]1C[C@@H]2O,0.48,–,–

Structure (SMILES),IC50 [1] [nM],Ratio [5],further results
CC(=O)O[C@@]12CO[C@@H]1C[C@H](O)[C@@]1(C)C(=O)[C@H](OC(=O)c3cccc4ccccc34)C3=C(C)[C@@H](OC(=O)[C@H](O)[C@H](C=C(C)C)NC(=O)OC(C)(C)C)C[C@@](O)([C@@H](OC(=O)c4ccccc4)[C@H]21)C3(C)C,5.3,2.9,–
COC(=O)O[C@H]1C(=O)[C@@]2(C)[C@H]([C@H](OC(=O)c3cccc(N=[N+]=[N-])c3)[C@]3(O)C[C@H](OC(=O)[C@H](O)[C@H](C=C(F)F)NC(=O)OC(C)(C)C)C(C)=C1C3(C)C)[C@]1(OC(C)=O)CO[C@@H]1C[C@@H]2O,–,–,IC50 (MCF7 [2]): 0.078 nM; IC50 (MCF7 [3]): 0.4 nM; Ratio (MCF7 [4]): 5.3
CC(=O)O[C@@]12CO[C@@H]1C[C@H](O)[C@@]1(C)C(=O)[C@H](O)C3=C(C)[C@@H](OC(=O)[C@H](O)[C@@H](NC(=O)OC(C)(C)C)c4ccccc4)C[C@@](O)([C@@H](OC(=O)c4ccccc4)[C@H]21)C3(C)C.O.O.O [DOCETAXEL],1,–,IC50 (HT-29): 1 nM; IC50 (MCF7 [3]): 215 nM
COc1cccc(CC(=O)O[C@H]2C(=O)[C@@]3(C)[C@H]([C@H](OC(=O)c4ccccc4)[C@]4(O)C[C@H](OC(=O)[C@H](O)[C@H](C=C(C)C)NC(=O)OC(C)(C)C)C(C)=C2C4(C)C)[C@]2(OC(C)=O)CO[C@@H]2C[C@@H]3O)c1,2.1,9.7,–
COc1cccc(C(=O)O[C@H]2[C@@H]3[C@]4(OC(C)=O)CO[C@@H]4C[C@H](O)[C@@]3(C)C(=O)[C@H](OC(C)=O)C3=C(C)[C@@H](OC(=O)[C@H](O)[C@H](C=C(C)C)NC(=O)OC(C)(C)C)C[C@]2(O)C3(C)C)c1,0.6,–,–
COc1ccccc1CC(=O)O[C@H]1C(=O)[C@@]2(C)[C@H]([C@H](OC(=O)c3ccccc3)[C@]3(O)C[C@H](OC(=O)[C@H](O)[C@H](C=C(C)C)NC(=O)OC(C)(C)C)C(C)=C1C3(C)C)[C@]1(OC(C)=O)CO[C@@H]1C[C@@H]2O,2.3,6,–
CCC(=O)O[C@H]1C(=O)[C@@]2(C)[C@H]([C@H](OC(=O)c3cccc(F)c3)[C@]3(O)C[C@H](OC(=O)[C@H](O)[C@H](C=C(C)C)NC(=O)OC(C)(C)C)C(C)=C1C3(C)C)[C@]1(OC(C)=O)CO[C@@H]1C[C@@H]2O,0.5,–,–
COc1ccc(C(=O)O[C@H]2C(=O)[C@@]3(C)[C@H]([C@H](OC(=O)c4ccccc4)[C@]4(O)C[C@H](OC(=O)[C@H](O)[C@H](C=C(C)C)NC(=O)OC(C)(C)C)C(C)=C2C4(C)C)[C@]2(OC(C)=O)CO[C@@H]2C[C@@H]3O)cc1,3.8,1.2,–
CC(=O)O[C@@]12CO[C@@H]1C[C@H](O)[C@@]1(C)C(=O)[C@H](OC(=O)CCc3ccccc3)C3=C(C)[C@@H](OC(=O)[C@H](O)[C@H](C=C(C)C)NC(=O)OC(C)(C)C)C[C@@](O)([C@@H](OC(=O)c4ccccc4)[C@H]21)C3(C)C,5.1,6.1,–
CC(=O)O[C@@]12CO[C@@H]1C[C@H](O)[C@@]1(C)C(=O)[C@H](OC(=O)c3ccc4ccccc4c3)C3=C(C)[C@@H](OC(=O)[C@H](O)[C@H](C=C(C)C)NC(=O)OC(C)(C)C)C[C@@](O)([C@@H](OC(=O)c4ccccc4)[C@H]21)C3(C)C,6.3,2.4,–
COc1ccccc1C(=O)O[C@H]1C(=O)[C@@]2(C)[C@H]([C@H](OC(=O)c3ccccc3)[C@]3(O)C[C@H](OC(=O)[C@H](O)[C@H](C=C(C)C)NC(=O)OC(C)(C)C)C(C)=C1C3(C)C)[C@]1(OC(C)=O)CO[C@@H]1C[C@@H]2O,2.1,2.7,–
COc1cccc(C(=O)O[C@H]2[C@@H]3[C@]4(OC(C)=O)CO[C@@H]4C[C@H](O)[C@@]3(C)C(=O)[C@H](OC(=O)C3CC3)C3=C(C)[C@@H](OC(=O)[C@H](O)[C@H](C=C(C)C)NC(=O)OC(C)(C)C)C[C@]2(O)C3(C)C)c1,1,2.9,–
COc1cccc(C(=O)O[C@H]2[C@@H]3[C@]4(OC(C)=O)CO[C@@H]4C[C@H](O)[C@@]3(C)C(=O)[C@H](OC(=O)C3CC3)C3=C(C)[C@@H](OC(=O)[C@H](O)[C@H](C=C(F)F)NC(=O)OC(C)(C)C)C[C@]2(O)C3(C)C)c1,–,–,IC50 (MCF7 [2]): 0.092 nM; IC50 (MCF7 [3]): 0.48 nM; Ratio (MCF7 [4]): 5.2
CC(=O)O[C@@]12CO[C@@H]1C[C@H](O)[C@@]1(C)C(=O)[C@H](OC(=O)c3ccccc3)C3=C(C)[C@@H](OC(=O)[C@H](O)[C@H](C=C(C)C)NC(=O)OC(C)(C)C)C[C@@](O)([C@@H](OC(=O)c4ccccc4)[C@H]21)C3(C)C,1.8,2.7,–
COc1ccccc1CCC(=O)O[C@H]1C(=O)[C@@]2(C)[C@H]([C@H](OC(=O)c3ccccc3)[C@]3(O)C[C@H](OC(=O)[C@H](O)[C@H](C=C(C)C)NC(=O)OC(C)(C)C)C(C)=C1C3(C)C)[C@]1(OC(C)=O)CO[C@@H]1C[C@@H]2O,1.5,3.3,–
